In patent US10457710B2, “Antimicrobial peptides, their variants and uses” (priority 2015, dated 2019):
Where a SMILES comes first, the peptide text is derived from it. Where no end group is shown, it is not given here. [ ]: non-standard residue; d: D form.

B1: En-MAP1: protein of 549 amino acids from an endophyte of Empetrum nigrum, GenBank accession number KC466596 (protein, listed as Empetrum nigrum)
chain: MRLVAHPVPDAPLYALMIKACSMGIPQPNDNLWKPRNPLLAKEEKTSKRGRTAPDTERALDLFREMTLRYNIRPTAEVYTAIIAACVKRDDMYDKGFGLFKKMVELERNRMSSEGHDSTSFAPTRATYNALLRGCARNKDLLRARWILAEMLRTAQAKWQEFMEKSKKGEEGVQEWELLEVEEMRPDTNTMAFLFYTYASHTTSSKAVPETEGKKELEGKAEERASEVTSVSPVSEPPEPMDESKLVYSLPTSSQAILREVTSLLDRIKSDQGQQSNLLSSVQINSKLLNSYIAVLSAHCRSSQVVERISEVVVGTKENPKSLFEETGTSVNGYTCFTVIDACGMMEHSPDTYHLACEMWQRWLSLVENATFHRENPLKAKEIGLDSRTISDCWSAMIRLHAKYNQVDEAMKLVHEFARLYPPASLFNSLTFEPSSTSSSSLSPRKGVQEISPLFSSTSLTHSIRGRDISRIQNTMSQDPTLQFRAVQILHLRLVELETRPKDLAYLSWLLKSYEHQLQPKRPKSLQGDLFTSRQAAYNRIVQQRTSSR

Tests used:
MRSA strains = experiment: MIC, synergistic activity with Ertapenem (4 μg/ml); format: cell-based, S. aureus; details: S. aureus COL with 4 μg/ml Ertapenem (synergistic activity)
Description: (§1) Peptides Chain 104, Chain 105, Chain 201, Chain 308, Chain 310 were tested against antibiotic-sensitive strains of S. aureus RN4220 and methicillin resistant strains of S. aureus COL (MRSA). Chain peptides comprising of either L- or D-form amino acids were tested against these bacteria, and the D-form peptides were found have better activity compared to L-form (Table 6). Synergistic activity of chain peptides along with Ertapenem (4 μg/ml) was tested to know whether it will influence the activity against MRSA strains. […] Chain 310 has the best antibacterial activity against the MRSA strains with a MIC of 0.06 & 0.03 μg/ml along with Ertapenem (4 μg/ml) for both forms of L and D-peptides (Table 6).

S. aureus RN4220 = format: cell-based; details: antibiotic sensitive strain S. aureus RN4220
Description: Minimum inhibition concetrations (MICs) were determined against Escherichia coli (ATCC 25922), Staphylococcus aureus (ATCC 25923), Klebsiella pneumoniae (ATCC 10031) and Pseudomonas aeruginosa (ATCC 27853). Also clinical strains of E. coli, K. pneumoniae, E. cloacae, P. aeruginosa, Serratia marcescens, Proteus mirabilis, S. pneumoniae, Acinetobacter baumannii, A. johnsonii and S. aureus were used for MICs assays. Additionally, clinical strains of yeast including Candida albicans, C. glabrata, C. parapsilosis and C. quillermondiae were used. The susceptibility of these microorganisms to Chain peptides were determined using micro broth dilution assay. Colonies of the respective microorganism from Muller Hinton (MH) agar plates incubated overnight were suspended in MH broth media and final concentration of microorganism was adjusted to 5.0×10^5 cfu/ml. An aliquot of 10 μl of each Chain peptide, or gentamicin, tetracycline as reference antibiotics were added in differing concentrations along with 90 μl of bacterial suspension to 96 well polypropylene plates and incubated at 37° C. for 20 to 24 hours. Concentrations of Chain peptides and reference antibiotics ranged from 0.125 to 128 μg/ml and the MICs were recorded as the lowest concentration with no visual growth of bacteria. Similarly, antifungal MICs were tested in Potato dextrose broth.
as §1

human erythrocytes = format: cell-based
Description: In hemolysis assays, the ability of peptides at 128 μg/ml concentration to lyse human erythrocytes to release hemoglobin was measured. The peptides described here preferably have low hemolytic activity (0.2 to 3.8% hemolysis) in mammal body. […] These peptides are useful as antimicrobial drugs as they show little or no side effects at concentrations needed to kill bacteria.
Minimum inhibition concentrations (MICs) were tested by microbroth dilution method and Chain 104, 105 and 109 inhibited the growth of Escherichia coli (ATCC 25922), Staphylococcus aureus (ATCC 25923), Klebsiella pneumoniae (ATCC 10031) and Pseudomonas aeruginosa (ATCC 27853) between 1-8 μg/ml respectively (Tables 3a, 3b and 3c). The membranolytic activities of the peptides were tested by measuring the release of hemoglobin from erythrocytes of fresh blood donated by voluntiers. Hemoglobin levels were determined spectrometrically by taking OD at 540 nm by following the protocol of Schmidtchen et al., 2011.

[1] = +4, 25, 37 and 45° C., 14 days, PBS pH 7.4, activity by RDA
Description: FIG. 8a. […] Antibacterial activity was tested by aliquoting 20 μg of peptides incubated at different temperature and activity was measured by zone of inhibition. Peptides at −20° C. served as control.
(§2) Thermal stability was evaluated by diluting peptides to the concentration of 2 mg/ml in PBS buffer (pH 7.4) and incubating at different temperatures, such as +4° C., 25° C. (RT), 37° C. and 45° C., peptides stored at −20° C. were used as control. After each time interval, 100 μl (2 mg/ml) of peptides were taken and stored at −20° C. for radial diffusion assay to determine the antibacterial activity (FIG. 8). Peptides were also tested by diluting them at different pH values starting from pH 4 to 9. The effect of NaCl on the antimicrobial activity was tested by adding different concentrations (50, 100 and 200 mM) of NaCl to MH medium and the minimum inhibitory concentrations were tested against 4 ATCC bacterial strains.

[2] = pH 4 to 9, activity by RDA
Description: FIG. 9a. pH stability of chain peptides 104 and 105 was determined by radial diffusion assay (RDA). Different pH ranging from 4-9 was used to check the zone of inhibition.
as §2

S. aureus = experiment: Antibacterial activity analysis of protein on LB plate; format: cell-based
Description: Both folded and unfolded proteins were tested for antibacterial activity against S. aureus by pipetting 10 μg of protein on the S. aureus culture on an LB plate. The activity was also tested in folded and unfolded protein digested with trypsin in 0.01% acetic acid at concentrations of 30 and 60 μg/ml.

| Molecule | Minimum inhibitory concentration (MICs), S. aureus COL + 4 μg/ml Ertapenem (MRSA strains) | Minimum inhibitory concentration (MICs), S. aureus RN4220 (S. aureus RN4220) | side effects to humans as tested by hemolysis assay (human erythrocytes) | thermostability [1] | pH stability [2] | further results |
| --- | --- | --- | --- | --- | --- | --- |
| CC[C@@H](C)[C@@H](NC(=O)[C@@H](Cc1c[nH]c2ccccc12)NC(=O)[C@H](N)CCCCN)C(=O)N[C@@H](C(=O)N[C@H](Cc1c[nH]c2ccccc12)C(=O)N[C@H](CCCNC(=N)N)C(=O)N[C@H](Cc1c[nH]c2ccccc12)C(=O)N[C@H](CCCNC(=N)N)C(=O)N[C@H](Cc1ccccc1)C(=O)N[C@H](CCCCN)C(=O)N[C@H](CCCNC(=N)N)C(=O)O)C(C)C [201 D] (H-[dK][dW][dI][dV][dW][dR][dW][dR][dF][dK][dR]-OH) | 1 µg/mL | 2 µg/mL | – | – | – | – |
| CC(C)C[C@@H](NC(=O)[C@H](N)CCCNC(=N)N)C(=O)N[C@H](CCCCN)C(=O)N[C@H](Cc1c[nH]c2ccccc12)C(=O)N[C@H](Cc1ccccc1)C(=O)N[C@H](CC(C)C)C(=O)N[C@H](CC(C)C)C(=O)N[C@H](Cc1ccccc1)C(=O)N[C@H](CCCNC(=N)N)C(=O)N[C@H](CCCCN)C(=O)N[C@H](CCCNC(=N)N)C(=O)O [308 D] (H-[dR][dL][dK][dW][dF][dL][dL][dF][dR][dK][dR]-OH) | 1 µg/mL | 4 µg/mL | – | – | – | – |
| CC(C)C[C@@H](NC(=O)[C@@H](CCCCN)NC(=O)[C@@H](CCCCN)NC(=O)[C@@H](Cc1ccccc1)NC(=O)[C@@H](CC(C)C)NC(=O)[C@@H](Cc1c[nH]c2ccccc12)NC(=O)[C@@H](CCCNC(=N)N)NC(=O)[C@@H](Cc1c[nH]c2ccccc12)NC(=O)[C@@H](CCCCN)NC(=O)[C@@H](CCCNC(=N)N)NC(=O)[C@H](N)CCCCN)C(=O)O [310 D] (H-[dK][dR][dK][dW][dR][dW][dL][dF][dK][dK][dL]-OH) | <0.03 µg/mL | >64 µg/mL | – | – | – | – |
| KRKWRWLFKKL [Chain310] | – | – | little side effects to humans | – | – | – |
| KRKWRWLFKKL [Compound 310] | 0.06 µg/mL | >64 µg/mL | – | – | – | – |
| KWIVWRWRFKR [Chain201] | – | – | little side effects to humans | not hindered by pH or temperature even upto 45 °C for over 14 days | not hindered by pH | – |
| KWIVWRWRFKR [Compound 201] | 0.5 µg/mL | 64 µg/mL | – | – | – | – |
| RKWRAMIRLHAKRLRK [Chain104] | – | – | little side effects to humans | not hindered by pH or temperature even upto 45 °C for over 14 days | not hindered by pH | – |
| RKWRAMIRLHAKRLRK [Compound 104] | 0.25 µg/mL | >64 µg/mL | – | – | – | – |
| RKWRAMIRLHAKWLRK [Chain105] | – | – | little side effects to humans | not hindered by pH or temperature even upto 45 °C for over 14 days | not hindered by pH | – |
| RKWRAMIRLHAKWLRK [Compound 105] | 0.5 µg/mL | >64 µg/mL | – | – | – | – |
| RLKRWRLFRKR [Chain306] | – | – | – | not hindered by pH or temperature even upto 45 °C for over 14 days | not hindered by pH | – |
| RLKWFLLFRKR [Chain308] | – | – | little side effects to humans | not hindered by pH or temperature even upto 45 °C for over 14 days | not hindered by pH | – |
| RLKWFLLFRKR [Compound 308] | 0.5 µg/mL | >64 µg/mL | – | – | – | – |
| RLKWFWLFRKR [Chain307] | – | – | little side effects to humans | – | – | – |
| RRLIWRRFKWLR [Chain204] | – | – | little side effects to humans | not hindered by pH or temperature even upto 45 °C for over 14 days | not hindered by pH | – |
| WWRLHAKWKLW [Chain109] | – | – | little side effects to humans | – | – | – |
| B1 | – | – | – | – | – | antibacterial activity against S. aureus (S. aureus; expressed, folded protein): no activity was observed; antibacterial activity against S. aureus (S. aureus; folded full protein digested with trypsin, data not shown): antibacterial activity was observed for up to two hours after digestion; antibacterial activity against S. aureus (S. aureus; trypsin digest of the unfolded protein): No activity was detected |
